Measured values published in ChEMBL document CHEMBL1806350, “Probes for narcotic receptor mediated phenomena. 43. Synthesis of the ortho-a and para-a, and improved synthesis and optical resolution of the ortho-b and para-b oxide-bridged phenylmorphans: compounds with moderate to low opioid-receptor affinity” (Bioorg Med Chem, 2011).

Tests used:
[1] = molecular target: T1, Kappa-type opioid receptor (Homo sapiens, UniProt P41145); experiment: Displacement of [125I]IOXY from human kappa opioid receptor expressed in CHO cells coexpressing human recombinant KOP after 2 hrs by liquid scintillation counting; assay type: cell-based
[2] = molecular target: Delta-type opioid receptor (Homo sapiens, UniProt P41143); experiment: Displacement of [125I]IOXY from human delta opioid receptor expressed in CHO cells coexpressing human recombinant DOR after 2 hrs by liquid scintillation counting; assay type: cell-based
Mu-type opioid receptor [3] = molecular target: T2, Mu-type opioid receptor (Homo sapiens, UniProt P35372); experiment: biochemical; assay type: cell-based, CHO
[4] = molecular target: T1, Kappa-type opioid receptor; conditions: CHO
Description: Antagonist activity at human kappa opioid receptor expressed in CHO cells coexpressing human recombinant KOP after 3 hrs by [35S]GTPgammaS binding assay

Mu-type opioid receptor [5] = molecular target: T2, Mu-type opioid receptor; conditions: CHO
Description: Antagonist activity at human mu opioid receptor expressed in CHO cells coexpressing human recombinant MOR after 3 hrs by [35S]GTPgammaS binding assay

T2 sequence (P35372 whole entry): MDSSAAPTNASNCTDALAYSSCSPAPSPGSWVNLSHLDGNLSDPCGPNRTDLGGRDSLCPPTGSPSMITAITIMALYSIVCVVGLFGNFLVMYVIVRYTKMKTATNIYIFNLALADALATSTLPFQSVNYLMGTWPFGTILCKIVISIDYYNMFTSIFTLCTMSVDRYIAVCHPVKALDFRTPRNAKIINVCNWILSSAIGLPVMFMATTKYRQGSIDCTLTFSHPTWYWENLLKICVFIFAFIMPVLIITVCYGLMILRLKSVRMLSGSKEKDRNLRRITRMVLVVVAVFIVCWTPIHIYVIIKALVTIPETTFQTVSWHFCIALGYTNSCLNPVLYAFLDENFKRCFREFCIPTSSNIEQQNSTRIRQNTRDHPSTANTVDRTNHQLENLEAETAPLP
T1 sequence (P41145 whole entry): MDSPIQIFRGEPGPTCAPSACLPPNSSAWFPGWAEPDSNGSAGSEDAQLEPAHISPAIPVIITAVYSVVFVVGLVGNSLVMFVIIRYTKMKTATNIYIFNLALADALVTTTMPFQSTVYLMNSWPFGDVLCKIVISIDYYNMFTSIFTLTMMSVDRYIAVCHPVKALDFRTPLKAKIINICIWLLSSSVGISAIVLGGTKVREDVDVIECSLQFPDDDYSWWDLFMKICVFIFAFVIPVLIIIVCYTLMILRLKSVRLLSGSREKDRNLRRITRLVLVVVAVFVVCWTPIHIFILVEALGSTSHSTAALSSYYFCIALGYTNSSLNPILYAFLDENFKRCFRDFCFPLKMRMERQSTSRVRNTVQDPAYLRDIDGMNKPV
Sequence of Delta-type opioid receptor (P41143 whole entry): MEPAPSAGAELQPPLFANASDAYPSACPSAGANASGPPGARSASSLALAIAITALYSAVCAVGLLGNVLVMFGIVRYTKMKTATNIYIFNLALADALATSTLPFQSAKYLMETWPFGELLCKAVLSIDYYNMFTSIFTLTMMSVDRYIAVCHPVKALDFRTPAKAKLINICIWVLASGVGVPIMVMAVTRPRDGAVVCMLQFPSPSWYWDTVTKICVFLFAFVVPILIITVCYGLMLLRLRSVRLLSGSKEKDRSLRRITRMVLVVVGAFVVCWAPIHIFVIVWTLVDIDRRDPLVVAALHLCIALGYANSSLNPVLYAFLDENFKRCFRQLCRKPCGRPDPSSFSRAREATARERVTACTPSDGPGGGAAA

Row | SMILES | Ki [1] | Ki [2] | Ki (Mu-type opioid receptor [3]) | Ke [4] | Ke (Mu-type opioid receptor [5]) | Ki ([1]; cho) | Ki ([2]; cho) | Ki (Mu-type opioid receptor [3]; cho)
1 | CN1CC[C@]23C[C@H]1CC[C@H]2Oc1c(O)cccc13 (racemic) | 7.5 µM | > 4.9 µM | > 2.8 µM |  |  |  |  | 
2 | Oc1ccc2c(c1)[C@@]13CCN(CCc4ccccc4)[C@@H](CC[C@H]1O2)C3 | 0.102 µM | > 5 µM | 0.352 µM | 103 nM | 227 nM |  |  | 
3 | Oc1cccc2c1O[C@@H]1CC[C@@H]3C[C@]21CCN3CCc1ccccc1 (racemic) | 0.171 µM | > 4.9 µM | 0.167 µM | 163 nM | 274 nM |  |  | 
4 | Oc1ccc2c(c1)[C@]13CCN(CCc4ccccc4)[C@H](CC[C@H]1O2)C3 (racemic) | 0.098 µM | > 4.9 µM | 0.486 µM | 46 nM | 23 nM |  |  | 
5 | Oc1cccc2c1O[C@@H]1CC[C@H]3C[C@@]21CCN3CCc1ccccc1 | 0.042 µM | > 5 µM | 0.049 µM | 22 nM | 31 nM |  |  | 
6 | Oc1ccc2c(c1)[C@]13CCN(CCc4ccccc4)[C@H](CC[C@@H]1O2)C3 | 0.199 µM | > 5 µM | 0.25 µM | 100 nM | 47 nM |  |  | 
7 | CN1CC[C@]23C[C@H]1CC[C@H]2Oc1ccc(O)cc13 (racemic) | > 8.6 µM | > 4.9 µM | > 2.8 µM |  |  |  |  | 
8 | Oc1cccc2c1O[C@H]1CC[C@@H]3C[C@]21CCN3CCc1ccccc1 |  |  |  | 761 nM | 328 nM | 0.367 µM | > 5 µM | 0.384 µM
